Data set [1] deals with anaesthetized dogs with closed thorax. The data set can be described thus: Erectile function in anaesthetized dogs with closed thorax (pressure in corpus cavernosum rigidum). In kind it is in vivo, dog. Conditions: 1 mg of substance/1 kg of body weight i.d.; erection initiated by stimulation of the nervus pelvinus. How it is done: (§1) All dose amounts are i.d. (intraduodenal), unless stated otherwise.
(§2) Measurements of Erectile Function in Anaesthetized Dogs with Closed Thorax
Erections of various extent were initiated by stimulation variation of the nervus pelvinus. The pressure in the corpus cavernosum rigidum [CCR] was measured.

For data set [2] the test system is unchanged. Briefly: Blood pressure and heart rate measured at the same time in anaesthetized dogs with closed thorax. Format: in vivo, dog. The settings on record: 1 mg/kg i.d. How it is done: as §1, §2
At the same time, the blood pressure and heart rate were measured.

For data set [3], the system named is anaesthetized dogs with open thorax. Briefly: Haemodynamics in anaesthetized dogs with open thorax. Format: in vivo, dog.
From the text: as §1

Data set [4] has the same test system. Briefly: Nitrate interaction in anaesthetized dogs with open thorax (i.v. infusion of isosorbitol dinitrate). Format: in vivo, dog. The settings on record: i.d., permanent i.v. infusion of isosorbitol dinitrate 50 μg/kg of body weight/hour. How it is done: Investigations of Nitrate Interaction of EMD 221829 and Sildenafil
The model and administration are as in B, but both test substances are administered with simultaneous permanent i.v. infusion of isosorbitol dinitrate (50 μg/kg of body weight/hour).

Data set [5] concerns spontaneously hypertensive rats. Briefly: Telemetric measurements of blood pressure and heart rate over 24 hours in spontaneously hypertensive rats. In kind it is in vivo, rat. The settings on record: 3, 10 and 30 mg/kg p.o.; telemetry over 24 hours. Here is the method: Telemetric Measurements of Blood Pressure and Heart Rate Over 24 Hours in Spontaneously Hypertensive Rats
Measurements of 3, 10 and 30 mg of substance/1 kg of body weight/p.o.

For a further data set, the system named is normotensive Wistar rats. Briefly: Telemetric measurements of blood pressure and heart rate over 24 hours in normotensive Wistar rats. Format: in vivo, rat. Conditions: 30, 100 and 300 mg/kg p.o.; telemetry over 24 hours.
For data set [6], the system named is spontaneously hypertensive rats. Briefly: Nitrate interaction in spontaneously hypertensive rats. In kind it is in vivo, rat. The settings on record: i.v. cumulative 0.1, 0.3, 1, 3 or 10 mg/kg; infusion of isosorbitol dinitrate 100 μg/kg of body weight/hour. How it is done:
Nitrate Interaction in Spontaneously Hypertensive Rats
Method: surgical instrumentation and measurement of blood pressure and heart rate after intravenous cumulative administration of either EMD 221829 or sildenafil (0.1, 0.3, 1, 3 or 10 mg/kg of body weight) with simultaneous infusion of isosorbitol dinitrate (100 μg/kg of body weight/hour).

The mark [7] stands for this setting: "in this dose" (100 mg of substance/1 kg of body weight) i.d.

On to `COc1ccc(CNc2nc(C3CCC(C(=O)O)CC3)nc3sc4ccccc4c23)cc1Cl.NCCO` (stereo not drawn) [EMD 221829, trans-4-[4-(3-chloro-4-methoxybenzylamino)benzo[4,5]-thieno[2,3-d]pyrimidin-2-yl]cyclohexanecarboxylic acid, ethanolamine salt], for which the “stimulation of erection (pressure in the corpus cavernosum rigidum)” value in data set [1] is recorded as “stimulates submaximal erection”. Further, the “effect on haemodynamic parameters (blood pressure and heart rate)” value in data set [2] is listed as “no effect”. Further, the “haemodynamic parameters compared with sildenafil” value in data set [3] (1 mg of substance/1 kg of body weight i.d.) is listed as “clear difference”. Moreover, in data set [3] (i.d.), the “cardiovascular side effects (reduction in blood pressure with reflex increase in heart rate)” value was “no cardiovascular side effects”. Also, in data set [3] (i.d.), the “dose from which effects on the blood pressure and heart rate are measurable” value is given as ≥ 100 mg of substance/1 kg of body weight. The “changes in blood pressure and heart rate with simultaneous administration of nitrate” value in data set [4] was “no changes”. The blood pressure result in data set [5] is given as “no change”; with normotensive Wistar rats, “no changes”; in data set [6] it was “no change”. The heart rate entry in the data set on normotensive Wistar rats is given as “no changes”; in data set [6] it was “no change”.

For `CCCc1nn(C)c2c(=O)[nH]c(-c3cc(S(=O)(=O)N4CCN(C)CC4)ccc3OCC)nc12` [sildenafil, reference compound], in data set [1], the “stimulation of erection (pressure in the corpus cavernosum rigidum)” value is reported as “Corresponding results”. Further, the blood pressure entry in data set [3] (setting [7]) is given as “reduction”; in data set [5], “significant dose-dependent reduction”; with normotensive Wistar rats it was “significant dose-dependent reduction”; in data set [6] it was “dose-dependent drop”. Moreover, the heart rate entry (in data set [3] (setting [7]); in the data set on normotensive Wistar rats; in data set [6]) was “increase” in each case. For the same molecule, in data set [4], the “changes in blood pressure and heart rate with simultaneous administration of nitrate” value was “significantly increased”.

The values are drawn from patent US20030022906A1, “Use of pde v inhibitors” (priority 2000, published 2003).
